Experimental data: patent publication US10729633B2, “Methods for boosting UVA photo-protection using antioxidants” (L'OREAL, priority 2018, dated 2020)

Key:
[1] = In vivo PPD: UVPPD PF according to ISO 24442; details: conclusion in words from PPD data of Examples 2 and 3
Description: To characterize protection from UVA radiation, the PPD (Persistent Pigment Darkening) method, which measures the color of the skin observed 2 to 4 hours after exposure of the skin to UVA radiation, is used. This method was adopted in 1996 by the Japanese Cosmetic Industry Association (JCIA) as the official test procedure for the UVA labelling of products and is commonly used in industry, especially in Europe and the United States. See JAPAN COSMETIC […] ASSOCIATION TECHNICAL BULLETIN, Measurement Standards for UVA Protection Efficacy. Issued Nov. 21, 1995 and effective of Jan. 1, 1996), which is incorporated herein by reference in its entirety. […]
The degree of UVA protection provided by each of the formulations was determined in terms of UVPPD PF. […]
The UVPPD PF for each of sunscreen formulations A, B, and C was determined according to ISO 24442, which was adopted by the Japan Cosmetic Industry Association in 2012 for characterization of UVA protection and is incorporated herein by reference in its entirety. […] UVA radiation can be monitored continuously during exposure using a Model DCS-1 Sunburn UV Meter/Dose Controller System (Solar Light Co.), formerly known as the Robertson-Berger Sunburn meter (R-B meter). […] The MPPD of unprotected skin is determined under standardized lighting conditions 2 to 4 hours after exposures. […]

[2] = Oxygen Radical Absorbance Capacity (ORAC) assay; format: biochemical; details: in tubo, Trolox standard
Description: (§1) In tubo antioxidant testing was carried out to determine the antioxidant profile of antioxidants that boost UVA photo-protection.
The Oxygen Radical Absorbance Capacity (ORAC) assay is one of most commonly used methods to evaluate the capacity of antioxidants against ROS (reactive oxygen species), specific for peroxyl which is one of the most important free radicals present in the human skin environment. The ORAC assay measures the oxidative degradation of the fluorescent probe (fluorescein) after being mixed with free radical generators such as azo-initiator compounds (2,2′-Azobis(2-amidinopropane) dihydrochloride, AAPH). Azo-initiators produce the peroxyl radical by heating, which damages the fluorescent molecule, resulting in the loss of fluorescence. Antioxidants protect the fluorescent molecule from the oxidative degeneration. By quantifying the decay of fluorescence using a fluorometer, the degree of protection is determined comparing with a standard control antioxidant Trolox. The result is expressed in mol equivalent of Trolox per gram of sample (i.e., μmol TE/g). Equipment that can automatically measure and calculate the capacity is commercially available, such as the VarioSkan flash microplate reader from Thermo Scientific. To test samples for ORAC, compounds are dissolved into water-based NaH2PO4 buffer.

[3] = Hydroxyl Radical Absorbance Capacity (HORAC) assay; format: biochemical; details: in tubo, Gallic Acid standard
Description: as §1
The HORAC assay is another common method to examine antioxidant activity. It is specific for hydroxyl radicals. The Varioskan Flash is employed for the quantification of the capacity of an antioxidant to avert the hydroxyl radical. The hydroxyl radical, generated from hydrogen peroxide and Cobalt (II) fluoride, will quench a fluorescent probe by a hydrogen atom transfer reaction. In the presence of an antioxidant, however, the molecule will chelate the Co(II), preventing the generation of the hydroxyl radical and initially block or prevent the quenching of the probe, causing a delay in the fluorescence decay profile. The area under the fluorescence decay curves for samples with and without the presence of an antioxidant molecule are compared to that of a standard reference material and the hydroxyl radical averting capacity is determined. By quantifying the decay of fluorescence using a fluorometer, the degree of protection is determined by comparison with a standard control antioxidant Gallic Acid (standard reference material). The result is expressed in μmol equivalent of Gallic Acid per gram of sample (i.e., μmol GAE/g). Equipment that can automatically measure and calculate the capacity is commercially available, such as the VarioSkan flash microplate reader from Thermo Scientific. To test samples by using HORAC, compounds are dissolved into water-based NaH2PO4 buffer.

[4] = Superoxide Radical Absorbance Capacity (SORAC) assay; format: biochemical; design: key: None: No detectable value; details: in tubo, WST-1 probe
Description: as §1
The Superoxide Radical Absorbance Capacity (SORAC) assay is an in tubo method to determine the relative capacity of an antioxidant to dismutate the superoxide anion. The Varioskan Flash is employed to measure the superoxide dismutase-catalyzed dismutation of the superoxide anion in the presence of the absorbance probe, water-soluble tetrazolium salt (WST-1). WST-Formazan is produced when WST-1 is […] by superoxide anion that is generated by the mixture of xanthine and xanthine oxidase. One unit of SOD activity is defined as the quantity of antioxidant to obtain 50% inhibition of the rate of reduction of WST-1. The final SORAC value is expressed as one unit of SOD activity per milligram of dry weight of antioxidant material at 50% inhibition (Unit/mg).

SMILES | boosting effect on UVA photo-protection [1] | ORAC-peroxyl [2] | HORAC-hydroxyl [3] | SORAC-superoxide [4]
O=C(O)[C@H]1O[C@@H](Oc2cc3oc(-c4ccccc4)cc(=O)c3c(O)c2O)[C@H](O)[C@@H](O)[C@@H]1O [Baicalin, reference compound] | did not boost UVA photo-protection | Medium (4500-10000) | Weak (<2600) | Medium (200-1000)
OC[C@H]1O[C@@H](Oc2cc(O)cc(/C=C/c3ccc(O)cc3)c2)[C@H](O)[C@@H](O)[C@@H]1O [Polydatin] | – | Strong (>10000) | Strong (>10000) | None
COc1cc(/C=C/C(=O)O)ccc1O [Ferulic acid] | – | Strong (>10000) | Strong (>10000) | Weak (<200)
O=C(CCc1ccc(O)cc1)c1c(O)cc(O)cc1O [Phloretin] | – | Strong (>10000) | Medium (2600-10000) | None
